Reference: patent publication US9388162B2, “Substituted morphinans and the use thereof” (Purdue Pharma L.P., priority 2012, dated 2016)

Columns and labels:
Assay type in all cases: biochemical
μ-opioid receptors [1] = target: T1, μ-opioid receptors (Homo sapiens (Human), UniProt P35372); assay: μ-opioid receptor [35S]GTPγS functional assay, HEK-293 cells; conditions: μ GTP; for EC50: read-out: Activity Response μ EC50 (nM) [mean ± SEM]; for Emax: relative to DAMGO, read-out: Activity Response μ Emax (%)
Method: (§1) [^35S]GTPγS functional assays were conducted using freshly thawed μ-receptor membranes prepared from a cell line expressing recombinant μ opioid receptor in a HEK-293, CHO or U-2 OS cell background or purchased from a commercial source (Perkin Elmer, Shelton, Conn.; or DiscovRx, Fremont, Calif.). Assay reactions were prepared by sequentially adding the following reagents to binding buffer (100 mM NaCl, 10 mM MgCl2, 20 mM HEPES, pH 7.4) on ice (final concentrations indicated): membrane protein (0.026 mg/mL), saponin ([…]), GDP ([…]) and [^35S]GTPγS (0.20 nM; Perkin Elmer, Shelton, Conn.). The prepared membrane solution (190 μl/well) was transferred to 96-shallow well polypropylene plates containing 10 μl of 20× concentrated stock solutions of the agonist [D-Ala^2, N-methyl-Phe^4 Gly-ol^5]-enkephalin (DAMGO) prepared in dimethyl sulfoxide (DMSO). Plates were incubated for 30 min at about 25° C. with shaking. Reactions were terminated by rapid filtration onto 96-well Unifilter GF/B filter plates (Perkin Elmer, Shelton, Conn.) using a 96-well tissue harvester (Perkin Elmer, Shelton, Conn.) followed by three filtration washes with 200 μl of ice-cold wash buffer (10 mM NaH2PO4, 10 mM Na2HPO4, pH 7.4). Filter plates were subsequently dried at 50° C. for 2-3 hours. BetaScint scintillation cocktail (Perkin Elmer, Shelton, Conn.) was added (50 μl/well) and plates were counted using a Packard Top-Count for 1 min/well. Data were analyzed using the sigmoidal dose-response curve fitting functions in GraphPad PRISM v. 3.0, or an in-house function for non-linear, sigmoidal dose-response curve-fitting.
(§2) μ GTP EC50 is the concentration of a compound providing 50% of the maximal response for the compound at a μ-opioid receptor.
(§3) μ GTP Emax (%) is the maximal effect elicited by a compound relative to the effect elicited by DAMGO, a standard μ agonist. Generally, the μ GTP Emax (%) value measures the efficacy of a compound to treat or prevent pain or other Conditions.
(§4) The following tables provide results on the efficacy of binding and activity response of exemplified Compounds of the Invention at the μ- and κ-opioid receptors. In TABLE 3, binding affinity of certain Compounds of the Invention to the μ- and κ-opioid receptors was determined as described above. In TABLE 4, activity response of certain Compounds of the Invention to the μ- and κ-opioid receptors was determined as described above for functional assays using HEK-293 cells. In TABLE 5, activity response of certain Compounds of the Invention to the μ- and κ-opioid receptors was determined as described above using U-2 OS cells.

κ opioid receptor = κ opioid receptor (Homo sapiens (Human), UniProt P41145); assay: κ-opioid receptor [35S]GTPγS functional assay, U-2 OS cells; conditions: κ GTP; for EC50: read-out: Activity Response κ EC50 (nM) [mean ± SEM]; for Emax: relative to U69,593, read-out: Activity Response κ Emax (%)
Method: Membranes from HEK-293 cells, CHO or U-2 OS cells expressing the recombinant human kappa opioid receptor (κ) were prepared by lysing cells in ice cold hypotonic buffer (2.5 mM MgCl2, 50 mM HEPES, pH 7.4) (10 mL/10 cm dish) followed by homogenization with a tissue grinder/Teflon pestle. Membranes were collected by centrifugation at 30,000×g for 15 min at 4° C. and pellets were resuspended in hypotonic buffer to a final concentration of 1-3 mg/mL. Protein concentrations were determined using the BioRad protein assay reagent with bovine serum albumen as standard. Aliquots of κ receptor membranes were stored at −80° C.
Functional [^35S]GTPγS binding assays were conducted as follows. κ opioid receptor membrane solution was prepared by sequentially adding final concentrations of 0.026 μg/μl κ membrane protein (in-house), 10 μg/mL saponin, 3 μM GDP and 0.20 nM [^35S]GTPγS to binding buffer (100 mM NaCl, 10 mM MgCl2, 20 mM HEPES, pH 7.4) on ice. The prepared membrane solution (190 μl/well) was transferred to 96-shallow well polypropylene plates containing 10 μl of 20× concentrated stock solutions of agonist prepared in DMSO. Plates were incubated for 30 min at a temperature of about 25° C. with shaking. Reactions were terminated by rapid filtration onto 96-well Unifilter GF/B filter plates (Perkin Elmer, Shelton, Conn.) using a 96-well tissue harvester (Packard) and followed by three filtration washes with 200 μl ice-cold binding buffer (10 mM NaH2PO4, 10 mM Na2HPO4, pH 7.4). Filter plates were subsequently dried at 50° C. for 2-3 hours. Fifty μl/well scintillation cocktail (Perkin Elmer, Shelton, Conn.) was added and plates were counted in a Packard Top-Count for 1 min/well.
κ GTP EC50 is the concentration of a compound providing 50% of the maximal response for the compound at a κ receptor.
κ GTP Emax (%) is the maximal effect elicited by a compound relative to the effect elicited by U69,593.
as §4, with “In” for “The following tables provide results on the efficacy of binding and activity response of exemplified Compounds of the Invention at the μ- and κ-opioid receptors. In”

μ-opioid receptors [2] = target: T1, μ-opioid receptors; assay: μ-opioid receptor [35S]GTPγS functional assay, U-2 OS cells; conditions: μ GTP; for EC50: read-out: Activity Response μ EC50 (nM) [mean ± SEM]; for Emax: relative to DAMGO, read-out: Activity Response μ Emax (%)
Method: as §1, §2, §3, §4

Question: Which results are given for `O=C1C[C@]23CCN(CC4CC4)[C@H](Cc4ccc(O)cc42)[C@]3(O)C[C@@H]1NS(=O)(=O)c1ccccc1` [Compound 43, N-((4bR,7S,8aS,9R)-11-(cyclopropylmethyl)-3,8a-dihydroxy-6-oxo-6,7,8,8a,9,10-hexahydro-5H-9,4b-(epiminoethano)phenanthren-7-yl)benzenesulfonamide]?
Answer: EC50 (μ-opioid receptors [1]): > 200000 nM; Emax (μ-opioid receptors [1]): 0%

Question: With `CN1CC[C@]23CC(=O)[C@@H](CC(=O)NCc4ccccc4)C[C@@]2(O)[C@H]1Cc1ccc(O)cc13` [Compound 83, N-benzyl-2-((4bR,7R,8aS,9R)-3,8a-dihydroxy-11-methyl-6-oxo-6,7,8,8a,9,10-hexahydro-5H-9,4b-(epiminoethano)phenanthren-7-yl)acetamide] as the molecule, how does the EC50 (μ-opioid receptors [1]) read?
Answer: The EC50 was 456 ± 36.7 nM.

Question: What about the Emax (μ-opioid receptors [1]) of the same molecule?
Answer: The Emax was 75 ± 5.51%.

Question: Which results are given for `CN1CC[C@]23CC(=O)[C@@H](CC(=O)NCC4CC4)C[C@@]2(O)[C@H]1Cc1ccc(O)cc13` [Compound 84, N-(cyclopropylmethyl)-2-((4bR,7R,8aS,9R)-3,8a-dihydroxy-11-methyl-6-oxo-6,7,8,8a,9,10-hexahydro-5H-9,4b-(epiminoethano)phenanthren-7-yl)acetamide]?
Answer: EC50 (μ-opioid receptors [1]): 1260 ± 301 nM; Emax (μ-opioid receptors [1]): 57.7 ± 2.73%

Question: Which EC50 (κ opioid receptor) does the source give for `COc1ccc2c(c1)[C@]13CCN(CC4CC4)[C@H](C2)[C@]1(O)C/C(=C\CC(C)C)C(=O)C3` [Compound 62, (4bR,8aS,9R,E)-11-(cyclopropylmethyl)-8a-hydroxy-3-methoxy-7-(3-methylbutylidene)-8,8a,9,10-tetrahydro-5H-9,4b-(epiminoethano)phenanthren-6(7H)-one] here?
Answer: The EC50 was 3070 ± 233 nM.

Question: What about the Emax (κ opioid receptor) of the same molecule?
Answer: Its Emax is 62.7 ± 4.37%.

Question: What about the EC50 (μ-opioid receptors [2]) of the same molecule?
Answer: Its EC50 is over 200000 nM.

Question: And the Emax (μ-opioid receptors [2])?
Answer: Its Emax is 27.5%.

Question: For `CC(C)C[C@H]1C[C@@]2(O)[C@H]3Cc4ccc(O)cc4[C@@]2(CCN3CC2CC2)CC1=O` [Compound 69, (4bR,7S,8aS,9R)-11-(cyclopropylmethyl)-3,8a-dihydroxy-7-isobutyl-8,8a,9,10-tetrahydro-5H-9,4b-(epiminoethano)phenanthren-6(7H)-one], which EC50 (κ opioid receptor) is on record?
Answer: The EC50 was 9.52 ± 1.41 nM.

Question: And the Emax (κ opioid receptor)?
Answer: The Emax was 95.2 ± 1.89%.

Question: And the EC50 (μ-opioid receptors [2])?
Answer: Its EC50 is over 200000 nM.

Question: What about the Emax (μ-opioid receptors [2]) of the same molecule?
Answer: The Emax was 2%.

Question: `COc1ccc2c(c1)[C@]13CCN(C)[C@H](C2)[C@]1(O)C[C@H](CCOCc1ccccc1)C(=O)C3` [Compound 50, (4bR,7S,8aS,9R)-7-(2-(benzyloxy)ethyl)-8a-hydroxy-3-methoxy-11-methyl-8,8a,9,10-tetrahydro-5H-9,4b-(epiminoethano)phenanthren-6(7H)-one] was tested. Which EC50 (κ opioid receptor) did it give?
Answer: Its EC50 is 7900 ± 707 nM.

Question: What about the Emax (κ opioid receptor) of the same molecule?
Answer: Its Emax is 74 ± 5.29%.

Question: And the EC50 (μ-opioid receptors [2])?
Answer: The EC50 was 148 ± 10.4 nM.

Question: What about the Emax (μ-opioid receptors [2]) of the same molecule?
Answer: The Emax was 102 ± 1.67%.

Question: For `CC(C)CCC(=O)N[C@H]1C[C@@]2(O)[C@H]3Cc4ccc(O)cc4[C@@]2(CCN3CC2CC2)CC1=O` [Compound 30, N-((4bR,7S,8aS,9R)-11-(cyclopropylmethyl)-3,8a-dihydroxy-6-oxo-6,7,8,8a,9,10-hexahydro-5H-9,4b-(epiminoethano)phenanthren-7-yl)-4-methylpentanamide], which EC50 (κ opioid receptor) is on record?
Answer: Its EC50 is 1.61 ± 0.12 nM.

Question: What about the Emax (κ opioid receptor) of the same molecule?
Answer: The Emax was 97.7 ± 3.18%.

Question: What about the EC50 (μ-opioid receptors [2]) of the same molecule?
Answer: Its EC50 is 9.61 ± 0.83 nM.

Question: And the Emax (μ-opioid receptors [2])?
Answer: Its Emax is 51 ± 2.65%.

Question: With `CC[C@H](C)C(=O)N[C@H]1C[C@@]2(O)[C@H]3Cc4ccc(O)cc4[C@@]2(CCN3CC2CC2)CC1=O` [Compound 37, (S)-N-((4bR,7S,8aS,9R)-11-(cyclopropylmethyl)-3,8a-dihydroxy-6-oxo-6,7,8,8a,9,10-hexahydro-5H-9,4b-(epiminoethano)phenanthren-7-yl)-2-methylbutanamide] as the molecule, how does the EC50 (κ opioid receptor) read?
Answer: Its EC50 is 42.1 ± 7.56 nM.

Question: And the Emax (κ opioid receptor)?
Answer: Its Emax is 71.3 ± 5.7%.

Question: And the EC50 (μ-opioid receptors [2])?
Answer: Its EC50 is over 200000 nM.

Question: And the Emax (μ-opioid receptors [2])?
Answer: The Emax was 6 ± 1.53%.

Question: Which results are given for `COc1ccc2c(c1)[C@]13CCN(C)[C@H](C2)[C@]1(O)C[C@H](CC(=O)N1CCCCC1)C(=O)C3` [Compound 76, (4bR,7R,8aS,9R)-8a-hydroxy-3-methoxy-11-methyl-7-(2-oxo-2-(piperidin-1-yl)ethyl)-8,8a,9,10-tetrahydro-5H-9,4b-(epiminoethano)phenanthren-6(7H)-one]?
Answer: EC50 (κ opioid receptor): > 200000 nM; Emax (κ opioid receptor): 47.7 ± 2.19%; EC50 (μ-opioid receptors [2]): 16700 ± 2270 nM; Emax (μ-opioid receptors [2]): 61.7 ± 1.86%
